Laboratory results reported in patent US20110224226A1, “COMPOSITIONS AND METHODS FOR INCREASING BLOOD PLATELET LEVELS IN HUMANS” (AKARX, Inc., priority 2006, published 2011).

Experiments:
[1] = in-vitro plasma protein binding, rabbits; type: in vitro ADME; conditions: rabbit, 0.05 to 50 μg/mL
Description: (§1) The in-vitro plasma protein binding of the drug of Formula I was independent of concentration over the concentration range of 0.05 to 50 μg/mL and was 87.2-89.1% in mice; 87.6-89.2% in rats; 88.3-92.0% in rabbits; […] in dogs; 97.0-97.6% in monkeys; and 96.3-96.6% in humans.

liver microsomal enzymes = test: metabolism by human liver microsomal enzymes; type: in vitro ADME
[2] = in-vitro plasma protein binding, monkeys; type: in vitro ADME; conditions: monkey, 0.05 to 50 μg/mL
Description: as §1

[3] = in-vitro plasma protein binding, rats; type: in vitro ADME; conditions: rat, 0.05 to 50 μg/mL
Description: as §1

platelet count [4] = test: Example 1 single dose study: pharmacodynamics (platelet count); type: in vivo, human
Description: (§2) A single-center, randomized, double-blind, dose-rising study to determine the safety, pharmacokinetics, and pharmacodynamics of single doses of 1-(3-chloro-5-{[4-(4-chlorothiophen-2-yl)-5-(4-cyclohexylpiperazin-1-yl)thiazol-2-yl]carbamoyl} pyridin-2-yl)piperadine-4-carboxylic acid (Formula I) in normal healthy volunteers was performed. The starting dose of the drug of Formula I was 1 mg (expressed as free base). Successive dose cohorts received 3, 10, 20, 50, 75 and 100 mg. The drug substance in the form of the monomaleate salt was suspended in Ora-Plus® (purified water, microcrystalline cellulose, sodium carboxymethylcellulose, xanthan gum, citric acid, sodium phosphate, simethicone, potassium sorbate and methylparaben), a commercially available oral suspending vehicle manufactured by Paddock Laboratories, Inc. Minneapolis, Minn. The Ora-Plus® was diluted with purified water, USP in a 1:1 suspension before being used to suspend the drug substance powder in preparation for oral administration. Prior to administration, 30 mL of the Ora-Plus®/water vehicle was added to each bottle, shaken and then consumed by the subject for each of the 3, 10, 50 and 75 mg dose cohorts. This was followed by an additional 30 mL of vehicle that was added to the bottle as a wash solution, shaken and then consumed by the subject. For the 20 mg and 100 mg dose cohorts, 60 mL of the Ora-Plus®/water vehicle was added to two (2) separate bottles containing the appropriate dose of drug (30 mL each bottle), shaken then consumed by the subjects. This was followed by an additional 60 mL of vehicle that was added as 30 ml to each bottle as a wash solution, shaken and then consumed by the subject.
A minimum of 9 subjects (male and female healthy volunteers) were enrolled in each cohort. The active group within each cohort included male and female volunteers. Three subjects per cohort received placebo. Each successive dose cohort was treated no sooner than 10 days after the previous group had received the study drug. […]

[5] = pharmacokinetics after intravenous and oral administration in mice; type: in vivo; conditions: mouse, plasma
From the text: After a single intravenous administration of the drug of Formula I as the monomaleate salt to mice and dogs, plasma concentrations of Formula I decreased in a biphasic manner.

[6] = Example 1 single dose study: safety; type: in vivo, human; conditions: single dose up to 100 mg, healthy volunteers
Description: as §2, with “For the 20 mg and 100 mg dose cohorts, 60 mL of the Ora-Plus®/water vehicle was added to two (2) separate bottles containing the appropriate dose of drug (30 mL each bottle), shaken then consumed by the subjects. This was followed by an additional 60 mL of vehicle that was added as 30 ml to each bottle as a wash solution, shaken and then consumed by the subject.” left out

[7] = 4-week repeat dose toxicity in rats; type: in vivo, rat
[8] = in-vitro plasma protein binding, mice; type: in vitro ADME; conditions: mouse, 0.05 to 50 μg/mL
Description: as §1

2C19 = 2C19 (Homo sapiens, UniProt P33261); test: inhibition of human liver cytochrome P450 2C19; type: in vitro ADME; conditions: human liver cytochrome P450 isoenzyme
Chain of 2C19 (P33261 whole entry): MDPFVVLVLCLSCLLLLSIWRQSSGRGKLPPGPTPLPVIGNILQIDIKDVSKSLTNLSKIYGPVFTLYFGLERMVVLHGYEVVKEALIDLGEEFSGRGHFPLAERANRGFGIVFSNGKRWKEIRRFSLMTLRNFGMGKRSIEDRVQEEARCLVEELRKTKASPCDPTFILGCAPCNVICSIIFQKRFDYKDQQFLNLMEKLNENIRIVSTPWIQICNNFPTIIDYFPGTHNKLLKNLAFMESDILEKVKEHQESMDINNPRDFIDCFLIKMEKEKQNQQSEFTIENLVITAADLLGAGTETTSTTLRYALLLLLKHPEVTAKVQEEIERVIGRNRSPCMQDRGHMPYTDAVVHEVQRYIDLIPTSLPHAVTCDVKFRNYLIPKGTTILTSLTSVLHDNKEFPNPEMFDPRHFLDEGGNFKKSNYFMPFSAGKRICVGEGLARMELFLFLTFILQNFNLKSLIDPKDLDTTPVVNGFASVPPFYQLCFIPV

platelet count [9] = test: Example 2 multi-dose study: pharmacodynamics (platelet count); type: in vivo, human
Description: (§3) A double-blind, placebo-controlled, dose rising study was performed in healthy male and female volunteers. Each dose cohort received either placebo or active treatment as an oral suspension once daily for fourteen (14) consecutive days. The dose of study drug was prepared and administered as described in Example 1 above. The doses administered in this multiple dose study were based on the safety and tolerability assessment of the doses administered in Example 1.
(§4) Based on the results of Example 1, the starting dose was 3 mg. Based on the safety and tolerability results from Example 1, the dose was scheduled to be escalated to 10, 20, 50 and 100 mg per day for 14 consecutive days. Successive dose cohorts were not treated until the previous cohort completed 14 days of treatment and the safety follow-up visit on Day 21.

[10] = Example 2 multi-dose study: safety; type: in vivo, human; conditions: up to 20 mg daily for ten (10) to fourteen (14) days, healthy volunteers
Description: as §3, §4

3A4 = 3A4 (Homo sapiens, UniProt P08684); test: inhibition of human liver cytochrome P450 3A4; type: in vitro ADME; conditions: human liver cytochrome P450 isoenzyme
Chain of 3A4 (P08684 whole entry): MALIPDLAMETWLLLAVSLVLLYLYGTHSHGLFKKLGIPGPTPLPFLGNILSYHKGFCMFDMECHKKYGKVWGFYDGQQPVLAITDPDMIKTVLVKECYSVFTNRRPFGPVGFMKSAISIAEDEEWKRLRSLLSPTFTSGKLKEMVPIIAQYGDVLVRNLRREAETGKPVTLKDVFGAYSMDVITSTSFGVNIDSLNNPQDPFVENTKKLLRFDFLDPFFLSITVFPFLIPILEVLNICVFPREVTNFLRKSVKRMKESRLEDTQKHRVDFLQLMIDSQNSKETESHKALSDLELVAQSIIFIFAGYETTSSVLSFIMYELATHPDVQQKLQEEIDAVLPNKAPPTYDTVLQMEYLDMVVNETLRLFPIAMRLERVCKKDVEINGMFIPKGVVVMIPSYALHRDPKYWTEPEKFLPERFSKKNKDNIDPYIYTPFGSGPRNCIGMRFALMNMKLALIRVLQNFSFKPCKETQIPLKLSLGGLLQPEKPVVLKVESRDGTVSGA

[11] = 4-week repeat dose toxicity in the dog; type: in vivo
human c-Mpl-Ba/F3 cells = test: proliferation of cultured human c-Mpl-Ba/F3 cells; type: cell-based; conditions: concentration-dependent; maximum effect similar to that of rhTPO

fraction unbound [1]: 0.08 to 0.117
metabolism by liver microsomal enzymes (liver microsomal enzymes): does not appear to be metabolized
fraction unbound [2]: 0.024 to 0.03
fraction unbound [3]: 0.108 to 0.124
half-life ([5]; mice, single intravenous administration as the monomaleate salt, read-out: terminal elimination half-life (t1/2) (converted)): 2.7 h
bioavailability ([5]; oral administration, read-out: absolute bioavailability): 91%
fraction unbound [8]: 0.109 to 0.128
inhibition of CYP2C19 (2C19): did not inhibit
inhibition of CYP3A4 (3A4): did not inhibit
SMILES: O=C(Nc1nc(-c2cc(Cl)cs2)c(N2CCN(C3CCCCC3)CC2)s1)c1cnc(N2CCC(C(=O)O)CC2)c(Cl)c1 [Formula I, 1-(3-chloro-5-{[4-(4-chlorothiophen-2-yl)-5-(4-cyclohexylpiperazin-1-yl)thiazol-2-yl]carbamoyl}pyridin-2-yl)piperadine-4-carboxylic acid]
dose at which the PD limit (5 subjects with >50% increase in platelet count) was reached (platelet count [4]; single dose): 100 mg
dose-concentration-response relationship for changes in platelet count (platelet count [4]; single dose, increasing drug concentrations and exposure): linear increases in platelet counts over baseline
single dose after which statistically significant increases in platelet counts were evident (platelet count [4]; single oral dose, healthy volunteers): ≥ 10 mg
tolerability (drug-related clinical or laboratory adverse experiences) [6]: well tolerated
reversibility of gastric mucosa changes ([7]; rat, on drug withdrawal): resolved on drug withdrawal
CK and aldolase levels ([7]; rat, repeat dosing 4 weeks): Elevated levels of CK and aldolase
muscle degeneration/necrosis in femoral, lower thigh or multifides muscles ([7]; rat, repeat dosing 4 weeks): 1 or 2 rats per dose group
changes in the gastric mucosa ([7]; rats, repeat dosing 4 weeks, 3, 10, 30, 100 mg/kg/day): degeneration of chief cells and parietal cells
dose-concentration-response relationship for changes in platelet count (platelet count [9]; 3 mg to 20 mg dose range, repeat dosing): linear increases in platelet counts over baseline
day by which the revised PD limit (>500,000 platelets) occurred in all six (6) subjects (platelet count [9]; 20 mg cohort): 10 to 11 days
dose cohort in which the original PD limit (five subjects with >50% increase in platelet count) was reached (platelet count [9]; once daily dosing): 10 mg
platelet counts following repeat administration (platelet count [9]; repeat administration of 10 mg and 20 mg): Statistically significant increases in platelet counts
tolerability (drug-related clinical or laboratory adverse experiences) [10]: well tolerated
muscle lesions ([11]; any dose): No muscle lesions were observed
renal findings at the end of the recovery period ([11]; high dose animals (100, 300 mg/kg/day), all other renal lesions resolved): regeneration of renal tubular epithelial persisted in the majority of the high dose animals
microscopic changes in the cortex of the kidney ([11]; monomaleate salt, 10, 30, 100, 300 mg/kg/day for 4 weeks): epithelial cell regeneration of proximal tubules and interstitial subacute inflammation
proliferation of cultured human c-Mpl-Ba/F3 cells (human c-Mpl-Ba/F3 cells): stimulates the proliferation
